Test results from patent US20140097078A1, “DISTILLATION DEVICE AND METHOD” (GE HEALTHCARE LIMITED, priority 2011, published 2014).
Like-named read-outs stand apart in the source and are kept apart here.

Key:
[1] = Radiolysis / stability of [18F]FET-βAG-TOCA: percentage of parent compound over time; format: physicochemical; settings: for Percentage of parent compound at time: T = 0 / Percentage of parent compound at time: T = 120 m / Percentage of parent compound at time: T = 240 m: ~10 ml in 3-6% EtOH/PBS
Method: The use of higher levels of fluorine-18 (0.5-1 Curie) was also investigated. […] Although radiolysis occurred during isolation, once the product had been fully formulated (6% EtOH/PBS (10 mL)) it appeared to be stable up to 6 h. During this experiment, the EOS yield after aseptic filtration was 13%. The starting fluorine-18 was then reduced to see enough material could be isolated for a clinical dose, whilst at the same time reducing radiolysis.
Additional experiments attempted to add ascorbic acid to the existing HPLC eluent (0.5% w/v), add a sodium ascorbate solution to the HPLC fraction collection vial (5 mg/mL (5 mL)) and elute the tC18 cartridge with a sodium ascorbate/EtOH solution (5 mg/mL/1% EtOH). Unfortunately, due to addition of ascorbic acid to the HPLC eluent, the purification became inefficient, showing very little elution of the stable reagents. […] The isolated yield was also unaffected and gave EOS of 14%. To avoid this problem, ethanol was investigated as a replacement for the ascorbic acid. After some optimisation, a suitable solvent system was found (25% MeCN (0.1% HCl), 75% H2O (0.1% HCl)+0.8% w/v EtOH) which could be used to purify the material at the same time as reducing radiolysis (97% parent T=0 min (n=1)) (Entry 5, Table 2).

[2] = Entry 1, starting activity 1 Curie
[3] = Entry 2, starting activity 600 mCi
[4] = Entry 3, starting activity 500 mCi
[5] = Entry 4, starting activity 500 mCi
[6] = Entry 5, starting activity 500 mCi, EtOH-containing HPLC eluent

Substance: [^18F]FET-βAG-TOCA
- time for which stable once fully formulated ([1]; 1 Curie run, formulated in 6% EtOH/PBS (10 mL)): ≥ 6 h
- Percentage of parent compound at time: T = 0 [1, 2]: 60%
- Percentage of parent compound at time: T = 120 m [1, 2]: 60%
- Percentage of parent compound at time: T = 240 m [1, 2]: 60%
- Percentage of parent compound at time: T = 0 [1, 3]: 91%
- Percentage of parent compound at time: T = 120 m [1, 3]: 91%
- Percentage of parent compound at time: T = 240 m [1, 3]: 91%
- Percentage of parent compound at time: T = 0 [1, 4]: 96%
- Percentage of parent compound at time: T = 120 m [1, 4]: 96%
- Percentage of parent compound at time: T = 240 m [1, 4]: 96%
- Percentage of parent compound at time: T = 0 [1, 5]: 97%
- Percentage of parent compound at time: T = 120 m [1, 5]: 97%
- Percentage of parent compound at time: T = 240 m [1, 5]: 97%
- Percentage of parent compound at time: T = 0 [1, 6]: 97%
- Percentage of parent compound at time: T = 240 m [1, 6]: 97%
- parent at T=0 min ([1]; HPLC solvent 25% MeCN (0.1% HCl), 75% H2O (0.1% HCl)+0.8% w/v EtOH, n=1, Entry 5, Table 2): 97%
- parent at T=0 min ([1]; ascorbic acid in HPLC eluent (0.5% w/v), sodium ascorbate in collection vial and tC18 eluent): 97%
- intact parent ([1]; starting with 0.5 Curies of fluorine-18): 91%
- parent at T=0 ([1]; starting with 1 Curie of fluorine-18, radiolysis during HPLC purification and tC18 formulation): 62%

Substance: βAG-TOCA
- time for which stable (in the presence of BPDS): ≤ 20 min
- time for which stable (in the presence of CuSO4): > 240 min
- time for which stable (in the presence of Na-ascorbate): ≤ 20 min
